# In patent publication US12215085B2 (priority 2019, dated 2025):
# Marks after values point to notes of the source that are not given here.
# Tested on: rats with beta-amyloid induced senile dementia
# Assay: Water maze test, beta-amyloid induced senile dementia rats
# Format: in vivo, rat
# Conditions: for adopted strategy for reaching the platform (the peripheral type and the random type %) / orientation angle for reaching the platform / speed for reaching the platform / swimming path length for reaching the platform / time for reaching the platform: succinate; for orientation angle for reaching the platform / speed for reaching the platform / swimming path length for reaching the platform / time for reaching the platform: x ± s
# [1] = 0.7, 1.4 and 2.8 mg/kg, Day 7, P<0.05 or P<0.01
# [2] = Day 1, 0.7 mg/kg intragastric, 0.7 mg/kg
# [3] = Day 1, 1.4 mg/kg intragastric, 1.4 mg/kg
# [4] = Day 1, 2.8 mg/kg intragastric, 2.8 mg/kg
# [5] = Day 2, 0.7 mg/kg intragastric, 0.7 mg/kg
# [6] = Day 2, 1.4 mg/kg intragastric, 1.4 mg/kg
# [7] = Day 2, 2.8 mg/kg intragastric, 2.8 mg/kg
# [8] = Day 3, 0.7 mg/kg intragastric, 0.7 mg/kg
# [9] = Day 3, 1.4 mg/kg intragastric, 1.4 mg/kg
# [10] = Day 3, 2.8 mg/kg intragastric, 2.8 mg/kg
# [11] = Day 4, 0.7 mg/kg intragastric, 0.7 mg/kg
smiles,measurement,setting,value
"Nc1c2c(nc3c1CCCC3)CCCC2.O=C(O)CCC(=O)O [Crystal Form A, 9-amino-1,2,3,4,5,6,7,8-octahydroacridine succinate]",latent period for reaching the platform vs model group,"0.7 mg/kg, Day 1, P<0.05",obviously shortened
same,latent period for reaching the platform vs model group,"1.4 mg/kg, Day 1 to Day 6, P<0.05 or P<0.01",obviously shortened
same,swimming path length for reaching the platform vs model group,"1.4 mg/kg, Day 3 and Day 5, P<0.05",obviously shortened
same,percentage of the swimming path length in the platform area quadrants to the total swimming path length vs model group,"1.4 mg/kg, Day 7, P<0.05",obviously increased
same,residence time in the platform quadrants vs model group,"1.4 mg/kg, Day 7, P<0.05",obviously increased
same,orientation angle vs model group,"2.8 mg/kg, Day 2, Day 3, Day 5 and Day 6, P<0.05 or P<0.01",obviously decreased
same,latent period for reaching the platform vs model group,"2.8 mg/kg, Day 2 to Day 6, P<0.05 or P<0.01",obviously shortened
same,swimming path length for reaching the platform vs model group,"2.8 mg/kg, Day 5 and Day 6, P<0.05",obviously shortened
same,swimming speed vs model group,"0.7, 1.4 and 2.8 mg/kg, Day 1, P<0.05",obviously increased
same,average speed and orientation angle vs model group,"0.7, 1.4 and 2.8 mg/kg, Day 7",not obviously changed
same,number of rats crossing the platform within 2 minutes vs model group,[1],obviously increased
same,residence time on the platform vs model group,[1],obviously increased
same,conversion from the peripheral type and the random type to the tendency type and the linear type in the strategy for looking for the platform,"0.7, 1.4 and 2.8 mg/kg, P<0.05 or P<0.01",obviously increased
same,orientation angle vs model group,"0.7 and 1.4 mg/kg, Day 2, P<0.05",obviously decreased
same,adopted strategy for reaching the platform (the peripheral type and the random type %),[2],87.50%
same,orientation angle for reaching the platform,[2],62.79 ± 19.80 °
same,speed for reaching the platform,[2],22.41 ± 7.84 cm/s
same,swimming path length for reaching the platform,[2],1169.52 ± 985.73 cm
same,time for reaching the platform,[2],51.79 ± 26.01 s
same,adopted strategy for reaching the platform (the peripheral type and the random type %),[3],92.50%
same,orientation angle for reaching the platform,[3],77.42 ± 21.94 °
same,speed for reaching the platform,[3],21.16 ± 5.82 cm/s
same,swimming path length for reaching the platform,[3],1022.59 ± 558.57 cm
same,time for reaching the platform,[3],47.00 ± 19.96 s
same,adopted strategy for reaching the platform (the peripheral type and the random type %),[4],95.50%
same,orientation angle for reaching the platform,[4],61.45 ± 13.71 °
same,speed for reaching the platform,[4],19.76 ± 2.88 cm/s
same,swimming path length for reaching the platform,[4],1215.28 ± 534.19 cm
same,time for reaching the platform,[4],65.22 ± 26.94 s
same,adopted strategy for reaching the platform (the peripheral type and the random type %),[5],68.75%
same,orientation angle for reaching the platform,[5],48.33 ± 25.33 °
same,speed for reaching the platform,[5],28.34 ± 10.42 cm/s
same,swimming path length for reaching the platform,[5],762.15 ± 878.65 cm
same,time for reaching the platform,[5],29.20 ± 28.52 s
same,adopted strategy for reaching the platform (the peripheral type and the random type %),[6],77.50%
same,orientation angle for reaching the platform,[6],53.95 ± 19.36 °
same,speed for reaching the platform,[6],24.65 ± 5.95 cm/s
same,swimming path length for reaching the platform,[6],657.63 ± 419.44 cm
same,time for reaching the platform,[6],29.60 ± 18.83 s
same,adopted strategy for reaching the platform (the peripheral type and the random type %),[7],67.50* %
same,orientation angle for reaching the platform,[7],42.58 ± 17.57 °
same,speed for reaching the platform,[7],23.62 ± 5.04 cm/s
same,swimming path length for reaching the platform,[7],717.16 ± 484.50 cm
same,time for reaching the platform,[7],27.92 ± 18.96 s
same,adopted strategy for reaching the platform (the peripheral type and the random type %),[8],87.50%
same,orientation angle for reaching the platform,[8],59.46 ± 34.15 °
same,speed for reaching the platform,[8],25.56 ± 10.30 cm/s
same,swimming path length for reaching the platform,[8],922.69 ± 927.53 cm
same,time for reaching the platform,[8],39.88 ± 39.00 s
same,adopted strategy for reaching the platform (the peripheral type and the random type %),[9],70.50%
same,orientation angle for reaching the platform,[9],49.79 ± 16.12 °
same,speed for reaching the platform,[9],23.53 ± 5.74 cm/s
same,swimming path length for reaching the platform,[9],359.75 ± 164.16 cm
same,time for reaching the platform,[9],15.74 ± 5.83 s
same,adopted strategy for reaching the platform (the peripheral type and the random type %),[10],70.00%
same,orientation angle for reaching the platform,[10],41.19 ± 18.30 °
same,speed for reaching the platform,[10],22.47 ± 2.59 cm/s
same,swimming path length for reaching the platform,[10],426.44 ± 213.56 cm
same,time for reaching the platform,[10],20.24 ± 10.26 s
same,adopted strategy for reaching the platform (the peripheral type and the random type %),[11],64.50* %
same,orientation angle for reaching the platform,[11],47.21 ± 18.21 °
same,speed for reaching the platform,[11],24.92 ± 2.52 cm/s
same,swimming path length for reaching the platform,[11],806.38 ± 1014.62 cm
